Patent US20230157935A1, “GADUSOL-CONTAINING SUNSCREEN FORMULATIONS” (Arcaea, LLC, priority 2021, published 2023)

Assays:
[1] = Folin-Ciocalteu antioxidant capacity; conditions: about 0.3 to 10 mg/ml
E. coli = assay: Toxicity towards E. coli; format: cell-based
Description: (§1) The amount of gadusol incorporated to provide the intended in vivo sunscreen SPF boosting activity can be from about 0.25, 0.50, 0.75, 1.0, 1.25, 1.50, 1.75, or 2.0% (w/w) in the sunscreen formulation that includes a physical/inorganic sunscreen active material, where any value can form an upper or lower endpoint, as appropriate. Still further, the amount of gadusol in the sunscreen formulation can be from about 0.25 to 2.0% (w/w), or from about 0.5 to 1.0% (w/w). In these, and possibly other amounts, gadusol suitably can provide a safe and effective sunscreen boosting effect when combined with sunscreen active ingredients. […] To summarize these safety tests, the cellular toxicity of gadusol was compared to that of a common sunscreen ingredient, oxybenzone. Vero E6 fibroblasts were used to evaluate toxicity. […] Toxicity towards E. coli was also not found.

[2] = test system: human skin (subject's back); assay: In vivo SPF determination (FDA 21 CFR 201.327, MEDp/MEDu)
Description: SPF can be measured in vivo according to the methodology set out in FDA 2011 Final Rule issued on Jun. 17, 2011, by the Federal Register. This method is very similar to the ISO 24444:2010 method used to measure SPF in the EU, as well as other countries. In fact, both methods are based on the International Sun Protection Factor (SPF) test method, COLIPA: Bruxelles, Belgium, 2006. The slight differences between the ISO and FDA methods are understood to generate no meaningful difference in the results. […] The main differences between the methods are the following: the calibration times of the UV source (each 12 months for the FDA, each 18 months for the ISO); the reference sunscreen products (P2 for the FDA and P2, P3 or P7 for the ISO); progressions of exposure times used. The disclosures of each of these in vivo SPF testing methods are incorporated herein their entirety by this reference.
The product is then labeled with the appropriate SPF value indicating the amount of sunburn protection provided by the product.
An in vivo SPF determination was conducted according to FDA, 21 CFR Sec. 201.327, subpart (i), SPF Test Procedure, Sunscreen Drug Products for Over-the-Counter Human Use, Final Monograph, Federal Register, Vol. 76, No. 117, Jun. 17, 2011, the disclosure of which is incorporated herein in its entirety by this reference. […]
For a baseline value, a series of 5 UV radiation doses expressed as Joules/square meter, increasing in 25% increments, was administered to two unprotected separate locations on each test subject's back, just below the shoulder blades and above the belt-line, to determine the initial unprotected MED (MEDu).
On Day 2, subjects returned to the testing laboratory within 16 to 24 hours following completion of the MEDu doses for evaluation of their responses, and to determine each subject's unprotected MED (MEDu). A subject's Minimal Erythemal Dose (MED) was the quantity of erythema effective energy, or dose corresponding to the first site that produced the first unambiguous erythema reaction with well-defined borders. […]

[3] = Stability of aqueous gadusol under acidic conditions, spectrophotometric at 296 nm; format: physicochemical
Procedure: Yet further, the inventors have determined that the stability of aqueous gadusol can be improved when stored under acidic conditions. For example, 90% gadusol activity can be retained after 90 days at pH 2.5, where the concentration of gadusol is determined spectrophotometrically at 296 nm where it has an extinction coefficient of 21,800 M^−1cm^−1. A standardized concentration curve can be used to determine an amount of gadusol in a volume sampled from a test solution at various time periods. Therefore, storage under acidic conditions may be useful for stabilizing gadusol generally, e.g., prior to introduction into a topical formulation. Combining gadusol with another antioxidant may be useful for extending the shelf life or stability of gadusol in a topical formulation.

Vero E6 fibroblasts = assay: Cellular toxicity compared to oxybenzone; format: cell-based
Description: as §1

Comet assay = format: cell-based
Description: as §1

Ames Test = format: cell-based
erythrocytes = assay: Cell-based antioxidant protection in erythrocytes (CAP-e) assay
Procedure: The cell-based antioxidant protection in erythrocytes (CAP-e) assay (Honzel et. al., 2008, and Jensen G S. Cell-based antioxidant protection assay, also disclosed in U.S. Pat. No. 8,465,988, incorporated herein in its entirety by this reference) was used. This testing was selected to measure antioxidant power but, in addition, the method ensures that the antioxidant agent crosses the cell's lipid boundary layer so that only intracytoplasmic activity is measured. […] The tested concentrations for both gadusol and the porphyra-334 ranged from 0.001 to 3.33 mg/mL.

[4] = In vitro SPF determination on VitroSkin, absorbance scan 290-400 nm; format: physicochemical
Procedure: SPF can also be evaluated using an in vitro method that utilizes a synthetic/simulated skin as a test substrate. In this regard, VitroSkin® is an advanced testing substrate that effectively mimics the surface properties of human skin. It has been formulated to have topography, pH, critical surface tension, chemical reactivity and ionic strength that is similar to human skin.
SPF was also evaluated using an in vitro method that utilizes a synthetic/simulated skin as a test substrate. In this regard, VitroSkin® is an advanced testing substrate that effectively mimics the surface properties of human skin. It has been formulated to have topography, pH, critical surface tension, chemical reactivity and ionic strength that is similar to human skin. The procedure for in vitro testing was conducted according to a standard protocol. For testing, the test product was applied in a known amount to the substrate at an application density of 2 mg/cm^2. The in vitro SPF scores were determined using a Labsphere UV-1000 Ultraviolet Transmittance Analyzer. Spectral scans of absorbance of the artificial skin treated with a sample sunscreen formulation were performed in the UV region of 290-400 nm. The in vitro SPF was then calculated using the absorbance scan results. At least 5 in vitro SPF values were recorded for each example formulation and the averages calculated for reporting.

Structure (SMILES)	antioxidant power versus mycosporine compound from nori seaweed (porphyra-334) [1]	toxicity towards E. coli (E. coli)	in vivo SPF relative to SPF conferred by 10% ZnO alone ([2]; 0.5% gadusol (w/w) in 10% ZnO formulation)	in vivo SPF relative to SPF conferred by 10% ZnO alone ([2]; 0.75% gadusol (w/w) in 10% ZnO formulation)	in vivo SPF relative to SPF conferred by 10% ZnO alone ([2]; 1.0% gadusol (w/w) in 10% ZnO formulation)	gadusol activity retained ([3]; aqueous, after 90 days at pH 2.5)	extinction coefficient ([3]; at 296 nm)	cellular toxicity (Vero E6 fibroblasts)	toxicity in the comet assay (Comet assay)	mutagenicity (Ames Test)	antioxidant activity (erythrocytes; 0.133 mg/ml)	antioxidant activity versus porphyra-334 (erythrocytes; about 1 mg/ml)	in vitro SPF activity of gadusol by itself, formulation matrix (1.1) subtracted ([4]; 0.25-0.5% gadusol, no ZnO)	greater SPF when added to composition containing 10% ZnO ([4]; 0.5% (w/w) gadusol, in vitro)	in vitro absorbance on addition to 10% ZnO sunscreen formulation ([4]; 0.5% gadusol, about 290 to about 325 nm, FIG. 6)	interference with the protective action of gadusol when combined (erythrocytes; gadusol and porphyra-334 combined)
COC1=C(O)CC(O)(CO)C(O)C1=O (stereo not shown) [gadusol]	substantially equivalent	not found	about 1.35 times	~1.51 times	~2.0 times	90%	21,800 M^−1cm^−1	less toxic	nor was it toxic	not to be mutagenic	Some in vivo antioxidant activity	significantly more active	2.5-2.8 SPF units	~50%	significantly more absorbance	
COC1=C(NCC(=O)O)C[C@@](O)(CO)CC1=N[C@H](C(=O)O)[C@@H](C)O [porphyra-334, reference compound]																did not interfere
